This is an account of results in patent US5084441A, “Acetylated low density lipoproteins: a delivery system to phagocytic cells for stimulating immunologic response and host resistance” (priority 1988, dated 1992).

Data set [1] has as its system thioglycolate-elicited macrophages. In words: Fluorescent binding and uptake of acetyl-LDL:MTP-PE-DiI by macrophages. It counts as cell-based, mouse. Conditions: 30-fold excess of competitor; 30 μg acetyl-LDL:MTP-PE-DiI; 37°. The protocol:
The binding and uptake of acetyl-LDL:MTP-PE-DiI was carried out at 37 degrees centigrade and the fluorescence intensity of cell-associated DiI recorded. The μg acetyl-LDL:MTP-PE-DiI bound was determined by knowing the quantity of DiI associated with the complex (1.34±0.76 nmol DiI/mg acetyl-LDL protein). The data points represent an average of three separate experiments.
Insert: Uptake of 30 μg of acetyl-LDL:MTP-PE-DiI and in the presence of a 30-fold excess of acetyl-LDL (a) a 30-fold excess of LDL (b) or a 30-fold excess of liposomes (c).

The test system of a further data set is macrophages. The conditions noted are these: reference 41; cited from earlier work.
The subject of data set [2] is thioglycolate-elicited macrophages, thymocytes and X63-Ag8.653 myeloma cells. In words: Cell specificity of [125I]acetyl-LDL binding. On the set-up: species or system mouse. As for the experimental part:
Thiglycolate-elicited macrophages, thymocytes and X63-Ag8.653 myeloma cells were incubated with [^125 I] acetyl-LDL at 4 degrees centigrade in six cell tissue culture plates at […]. After 2 hours, the cells were washed five times, then lysed in 0.05% Triton X-100 and the amount of [^125 I] acetyl-LDL bound was determined.

The test system of data set [3] is P815 mastocytoma target cells. Put plainly: Macrophage-mediated cytotoxicity ([3H]thymidine release) after treating thioglycolate-elicited macrophages. As for the experimental part: Macrophage-mediated cytotoxicity: Cytotoxicity was determined using a [3H] thymidine release assay. Thioglycolate-elicited macrophages were plated in 96-well flat-bottom tissue culture plates (Costar, Cambridge, Mass.) at 4×10^5 and 1×10^4 macrophage per well. […] After 24 hours, the plates were washed three times and [3H] thymidine labelled P815 tumor target cells (1×10^4) were added to each well. The total assay volume was 250 μl in DMEM with 10% FCS and the plates were incubated an additional 24 hours. After incubation, the microplates were centrifuged for 2 minutes at 250×g and a 125 μl aliquot of supernatant was removed and counted by liquid […]. Total incorporation of radioactivity was determined by adding 1×10^4 cells to 2 ml of Beckman Redissolve scintillation cocktail.
The percent specific release was calculated. [formula]
All samples were plated in triplicate and the data presented as the mean ±S.D. of triplicates.

The subject of data set [4] is B16F10 melanoma target cells. In words: Macrophage-mediated cytostasis ([3H]thymidine incorporation) after treating thioglycolate-elicited macrophages. Conditions: for % Cytostasis: effector:target 10:1. On the technique in general: Uptake of a labelled nucleoside into DNA is a usual measure of proliferation.
Method: ^(2) Thioglycolate-elicited macrophages were treated with different
concentrations of the complex for 24 hours, unbound complex was washed
away and B16F10 melanoma cells were added. After 24 hours, the cultures
were pulsed with [3H]thymidine and harvested after 18 hours
(effector:target ratio, 10:1).
Macrophage-mediated Cytostasis: Cytostatic activity was determined using a (^3 H) Thymidine (New England Nuclear Corp) incorporation technique (64). […] After 24 hours, the cells were washed twice with warm DMEM and cultured in DMEM (10% FCS), with 1×10^5 B16F10 melanoma target cells for 24 hours. The cells were then pulsed for 24 hours with 1 uCi of (^3 H) thymidine. Cells were harvested using a MASH cell harvester and assayed with a liquid scintillation counter. The results were expressed as a percent inhibition of (^3 H) thymidine incorporation into the B16F10 target cells (such as % cytostasis). [formula]

As for “Acetyl-LDL: human plasma LDL exhaustively acetylated with acetic anhydride at apoprotein B lysine residues; the carrier alone”, the “competition with uptake of DiI-labeled acetyl-LDL:MTP-PE complex” value in data set [1] is reported as “effective competitive inhibitor”. Further, the “rate of uptake and degradation by macrophages relative to LDL” value in the data set on macrophages is “approximately twenty-fold greater”. Moreover, in data set [2], the “binding to myeloma cell line (B-lymphocyte) and thymocytes (T-lymphocytes)” value is recorded as “only low levels of binding”. Further, the “Percent Cytotoxicity” value in data set [3] (effector to target cell ratio 1:1, same amounts per well) amounted to 0.5 ± 1%; in data set [3] (effector to target cell ratio 5:1, same amounts per well), 4.5 ± 4%; in data set [3] (effector to target cell ratio 10:1, same amounts per well) it was 4 ± 2%; in data set [3] (effector to target cell ratio 20:1, same amounts per well), 6 ± 2%; in data set [3] (effector to target cell ratio 40:1, per well: complex 18.0 ug protein containing 3.6 ug MTP-PE, free MTP-PE 3.6 ug, acetyl-LDL 18.0 ug protein), 3 ± 3%. For the same substance, the “% Cytostasis” value in data set [4] (acetyl-LDL 6.25 μg protein/ml (MTP-PE 0.62 μg/ml in complex, 0.0 alone), 24 hours) is recorded as at most 5%; in data set [4] (acetyl-LDL 12.5 μg protein/ml (MTP-PE 1.3 μg/ml in complex, 0.0 alone), 24 hours) it was below 5%; in data set [4] (acetyl-LDL 25 μg protein/ml (MTP-PE 2.5 μg/ml in complex, 0.0 alone), 24 hours), 25 ± 12%; in data set [4] (acetyl-LDL 50 μg protein/ml (MTP-PE 5.0 μg/ml in complex, 0.0 alone), 24 hours), below 5%; in data set [4] (acetyl-LDL 100 μg protein/ml (MTP-PE 9.9 μg/ml in complex, 0.0 for acetyl-LDL alone), macrophages treated 24 hours) it was below 5%. Further, the “% Cytostasis (Complex + Excess Liposomes)” value in data set [4] (acetyl-LDL 6.25 μg protein/ml (MTP-PE 0.62 or 0.0 μg/ml) in presence of excess liposomes 1.2 mg lipid/ml), in data set [4] (acetyl-LDL 12.5 μg protein/ml (MTP-PE 1.3 or 0.0 μg/ml) in presence of excess liposomes 1.2 mg lipid/ml), in data set [4] (acetyl-LDL 25 μg protein/ml (MTP-PE 2.5 or 0.0 μg/ml) in presence of excess liposomes 1.2 mg lipid/ml), in data set [4] (acetyl-LDL 50 μg protein/ml (MTP-PE 5.0 or 0.0 μg/ml) in presence of excess liposomes 1.2 mg lipid/ml) and in data set [4] (acetyl-LDL 100 μg protein/ml (MTP-PE 9.9 or 0.0 μg/ml) in presence of excess liposomes 1.2 mg lipid/ml) was at most 5% in each case.

“LDL: native unmodified human plasma low density lipoprotein”: the “competition with uptake of DiI-labeled acetyl-LDL:MTP-PE complex” value in data set [1] is listed as “negligible to moderate competition”.
